Earlier results as cited in patent US20030073219A1, “Crystal structure” (priority 2001, published 2003).

Biological target: ApbA protein (ketopantoate reductase) (Salmonella typhimurium, UniProt P37402)
Conditions: purified ApbA protein from S. typhimurium; substrate/cofactor KM; read-out: apparent KM

Sequence of ApbA protein (ketopantoate reductase) (P37402 whole entry): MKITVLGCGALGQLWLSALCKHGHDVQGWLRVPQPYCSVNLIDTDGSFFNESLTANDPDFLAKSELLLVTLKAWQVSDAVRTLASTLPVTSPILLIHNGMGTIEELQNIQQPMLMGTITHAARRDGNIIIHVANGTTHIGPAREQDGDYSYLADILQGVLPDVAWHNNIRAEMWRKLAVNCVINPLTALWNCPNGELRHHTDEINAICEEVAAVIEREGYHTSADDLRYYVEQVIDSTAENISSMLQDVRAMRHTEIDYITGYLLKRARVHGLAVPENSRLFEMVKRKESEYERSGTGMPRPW

NC(=O)C1=CN([C@@H]2O[C@H](COP(=O)(O)OP(=O)(O)OC[C@H]3O[C@@H](n4cnc5c(N)ncnc54)[C@H](OP(=O)(O)O)[C@@H]3O)[C@@H](O)[C@H]2O)C=CC1 [NADPH]
Km: 770 µM

CC(C)(CO)C(=O)C(=O)O [ketopantoate]
Km: 740 µM
